Where two headings read alike, the source gives them in different places.
What was measured:
Cathepsin D (Cat D) = Cathepsin D (Cat D) (Homo sapiens, UniProt P07339); assay: In vitro enzymatic Cathepsin D (Cat D) FRET assay; type: biochemical
Protocol: In Vitro Enzymatic Cathepsin D (Cat D) FRET (Fluorescence Resonance Energy Transfer) Assay
Recombinant Cat D was expressed in CHO cells. The assay buffer for CathepsinD is 0.05 M citrate pH 3.5, 10% DMSO final, 5 mM CHAPS. The Cat D enzyme (9 nM) is pre-incubated for one hour with inhibitors, typically in about 1 uL of DMSO according to a serial dilution, is added thereto. The assays are effectively started by the addition of different FRET substrates (20 nM for Cat D) and the combination is incubated for one hour. The FRET assay is terminated with by addition of Tris buffer, which raises the pH to neutrality, and the fluorescence is determined. The FRET substrate is a peptide with commercially available fluorophore and quencher, on opposite sides of the BACE cleavage site. The Cat D substrate peptide sequence is based on sequence #1 of Table 1 from Gulnik et al. FEBS Letters v413 p 379-384 1997. Proteolytic cleavage of the FRET substrate releases quenching of fluorescence (Cat D excitation 500 nm and emission 580 nm). […]
See, for instance, examples 8, 12, 15, 16, 18, 21-23, 24, 25, 26, 29, 30, 32, 41-42, 45, 53, 54, 57, 63, 67-69, 72-74, 76, 79-81, 83 & 84 (to point to just a few; referring to data in Table 2). […] See, for instance, examples 8, 12, 15, 18, 21-23, 25, 29, 30, 32, 41-42, 45, 54, 57, 67-68, 72-73, 76, 80-81, 84, 86, 91-92 & 100 (to point out those from compound examples 1-100; and with reference to data in Table 2).

[1] = tested on: Aβ 40 in conditioned medium of cells stably expressing Amyloid Precursor Protein (APP); assay: In vitro BACE cell-based assay (Aβ 40 sandwich ELISA); conditions: Homo sapiens, HEK293
Protocol: In Vitro BACE Cell-Based Assay
The cell-based assay measures inhibition or reduction of […] in conditioned medium of test compound treated cells expressing amyloid precursor protein.
Cells stably expressing Amyloid Precursor Protein (APP) were plated at a density of 40K cells/well in 96 well plates (Costar). The cells were cultivated for 24 hours at 37° C. and 5% CO2 in DMEM supplemented with 10% FBS. The test compounds were then added to cells in 10-point dose response concentrations with the starting concentration being either 100 μM or 10 μM. The compounds were diluted from stock solutions in DMSO and the final DMSO concentration of the test compounds on cells was 0.1%. After 24 h of incubation with the test compounds the supernatant conditioned media was collected and the Aβ 40 levels were determined using a sandwich ELISA. The IC50 of the compound was calculated from the percent of control or percent inhibition of Aβ 40 as a function of the concentration of the test compound.
The sandwich ELISA to detect Aβ 40 was performed in 96 well microtiter plates, which were pre-treated with goat anti-rabbit IgG (Pierce). The capture and detecting antibody pair that were used to detect Aβ 40 from cell supernatants were affinity purified pAb40 (Biosource) and biotinylated 6E10 (Signet Labs Inc.), respectively. The optimal concentration for the pAb40 antibody was 3 μg/ml in Superblock/TBS (Pierce) that was supplemented with 0.05% Tween 20 (Sigma). Optimal concentration for the detection antibody 6E10-biotinylated was 0.5 μg/ml in Superblock/TBS (Pierce) that had been supplemented with 2% normal goat serum and 2% normal mouse serum.
Cellular supernatants were incubated with the capture antibody for 3 h at 4° C., followed by 3 wash steps in TBS-tween (0.05%). The detecting antibody incubation was for 2 h at 4° C., again followed by the wash steps as described previously. The final readout of the ELISA is Time-Resolved Fluorescence (counts per minute) using Delfia reagents Streptavidin-Europium and Enhancement solutions (Perkin Elmer) and the Victor 2 multilabel counter (Perkin Elmer).

[2] = target: Beta Secretase enzyme (BACE) (Homo sapiens, UniProt P56817); assay: In vitro enzymatic BACE FRET assay; type: biochemical; conditions: read-out: BACE1 FRET assay IC50
Chain of Beta Secretase enzyme (BACE) (P56817 46-501): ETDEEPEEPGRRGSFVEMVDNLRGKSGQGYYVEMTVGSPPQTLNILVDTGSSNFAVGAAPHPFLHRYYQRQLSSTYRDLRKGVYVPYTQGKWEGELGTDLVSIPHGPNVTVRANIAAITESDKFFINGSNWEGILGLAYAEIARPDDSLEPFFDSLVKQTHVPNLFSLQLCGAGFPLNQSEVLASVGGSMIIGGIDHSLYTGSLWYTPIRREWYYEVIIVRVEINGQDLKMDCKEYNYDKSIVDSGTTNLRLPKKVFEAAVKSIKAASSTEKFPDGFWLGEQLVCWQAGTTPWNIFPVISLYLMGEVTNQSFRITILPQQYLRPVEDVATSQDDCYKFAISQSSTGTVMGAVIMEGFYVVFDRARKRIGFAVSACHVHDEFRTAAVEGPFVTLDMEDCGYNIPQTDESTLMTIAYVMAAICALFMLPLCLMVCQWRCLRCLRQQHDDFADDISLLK
Protocol: In Vitro Enzymatic BACE FRET (Fluorescence Resonance Energy Transfer) Assay (Enzyme Assay Data in the Example Table I)
The assay buffer used in this screen is 0.05 M acetate, pH 4.2, 10% DMSO final, 100 uM genapol (which is a nonionic detergent, below its Critical Micelle Concentration). The Beta Secretase enzyme (0.2 nM) is pre-incubated for one hour with inhibitors, typically in about 1 uL of DMSO according to a serial dilution, are added thereto. This assay is effectively started by the addition of FRET substrate (50 nM) and the combination is incubated for one hour. The FRET assay is terminated with by addition of Tris buffer, which raises the pH to neutrality, and the fluorescence is determined. The FRET substrate is a peptide with commercially available fluorophore and quencher, on opposite sides of the BACE cleavage site. Proteolytic cleavage of the FRET substrate releases quenching of fluorescence (excitation 488 nm and […]).

[3] = Cathepsin D FRET assay, read-out: CatD IC50
[4] = average IC50, HEK cell assay, Aβ 40 readout
[5] = text summary referring to data in Table 2

Chain of Cathepsin D (Cat D) (P07339 65-412, species assumed): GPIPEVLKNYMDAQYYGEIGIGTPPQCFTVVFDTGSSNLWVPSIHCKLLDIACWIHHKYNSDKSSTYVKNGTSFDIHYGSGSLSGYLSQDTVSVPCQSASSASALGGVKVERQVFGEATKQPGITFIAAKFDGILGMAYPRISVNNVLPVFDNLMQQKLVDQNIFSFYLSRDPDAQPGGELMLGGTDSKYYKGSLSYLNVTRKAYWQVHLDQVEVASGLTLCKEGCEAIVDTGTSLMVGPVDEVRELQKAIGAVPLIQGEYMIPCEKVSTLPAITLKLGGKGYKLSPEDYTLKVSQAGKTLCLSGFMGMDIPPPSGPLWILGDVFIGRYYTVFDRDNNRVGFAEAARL

Row | SMILES | IC50 (Cathepsin D (Cat D); read-out: CatD IC50) | IC50 ([1]; HEK cell, average IC50) | IC50 ([2]; average IC50) | IC50 (Cathepsin D (Cat D); [3]) | IC50 [1, 4] | IC50 ([2]; average IC50, in vitro enzymatic BACE FRET assay) | IC50 (Cathepsin D (Cat D); [5])
1 | CC1(C)C(N)=N[C@]2(C)c3cc(Nc4ncccc4C#N)ccc3OCC[C@H]2S1(=O)=O [Example 7, 2-(((4aR,11bR)-2-amino-3,3,11b-trimethyl-4,4-dioxido-4a,5,6,11b-tetrahydro-3H-[1]benzoxepino[4,5-b][1,4]thiazin-10-yl)amino)-3-pyridinecarbonitrile] | 252 µM | 0.124 µM | 0.116 µM | – | – | – | –
2 | COc1cnc(C(=O)Nc2ccc3c(c2)[C@@]2(C)N=C(N)C(C)(C)S(=O)(=O)[C@H]2CCC3)cn1 [Example 8, N-((4aS,11bR)-2-amino-3,3,11b-trimethyl-4,4-dioxido-3,4a,5,6,7,11b-hexahydrobenzo[3,4]cyclohepta[1,2-b][1,4]thiazin-10-yl)-5-methoxy-2-pyrazinecarboxamide] | 1890 µM | 0.031 µM | 0.172 µM | – | – | – | > 1200 µM
3 | Cc1cc(Cl)cnc1C(=O)Nc1ccc2c(c1)[C@@]1(C)N=C(N)C(C)(C)S(=O)(=O)[C@H]1CCC2 [Example 9, N-((4a8,11bR)-2-amino-3,3,11b-trimethyl-4,4-dioxido-3,4a,5,6,7,11b-hexahydrobenzo[3,4]cyclohepta[1,2-b][1,4]thiazin-10-yl)-5-chloro-3-methyl-2-pyridinecarboxamide] | 757 µM | 0.02 µM | 0.021 µM | – | – | – | –
4 | COc1cnc(C(=O)Nc2ccc3c(c2)[C@@]2(C)N=C(N)C(C)(C)S(=O)(=O)[C@@H]2CCC3)cn1 [Example 10, N-((4aR,11bR)-2-amino-3,3,11b-trimethyl-4,4-dioxido-3,4a,5,6,7,11b-hexahydrobenzo[3,4]cyclohepta[1,2-b][1,4]thiazin-10-yl)-5-methoxy-2-pyrazinecarboxamide] | 340 µM | 0.004 µM | 0.011 µM | – | – | – | –
5 | Cc1cc(Cl)cnc1C(=O)Nc1ccc2c(c1)[C@@]1(C)N=C(N)C(C)(C)S(=O)(=O)[C@@H]1CCC2 [Example 11, N-((4aR,11bR)-2-amino-3,3,11b-trimethyl-4,4-dioxido-3,4a,5,6,7,11b-hexahydrobenzo[3,4]cyclohepta[1,2-b][1,4]thiazin-10-yl)-5-chloro-3-methyl-2-pyridinecarboxamide] | 217 µM | 0.008 µM | 0.005 µM | – | – | – | –
6 | CC#CCOc1cnc(C(=O)Nc2ccc3c(c2)[C@@]2(C)N=C(N)C(C)(C)S(=O)(=O)[C@]2(F)CCO3)cn1 [Example 94, N-((4aR,11bR)-2-amino-4a-fluoro-3,3,11b-trimethyl-4,4-dioxido-4a,5,6,11b-tetrahydro-3H-[1]benzoxepino[4,5-b][1,4]thiazin-10-yl)-5-(2-butyn-1-yloxy)-2-pyrazinecarboxamide] | – | – | – | > 400 µM | 0.008 µM | – | –

Second part, the molecule after the results:

Row | IC50 (Cathepsin D (Cat D); read-out: CatD IC50) | IC50 ([1]; HEK cell, average IC50) | IC50 ([2]; average IC50) | IC50 (Cathepsin D (Cat D); [3]) | IC50 [1, 4] | IC50 ([2]; average IC50, in vitro enzymatic BACE FRET assay) | IC50 (Cathepsin D (Cat D); [5]) | SMILES
7 | 689 µM | 0.001 µM | 0.005 µM | – | – | – | – | CC#CC(C)Oc1cnc(C(=O)Nc2ccc3c(c2)[C@@]2(C)N=C(N)C(C)(C)S(=O)(=O)[C@@H]2CCO3)cn1 (mixture of isomers) [Example 14, N-((4aR,11bR)-2-amino-3,3,11b-trimethyl-4,4-dioxido-4a,5,6,11b-tetrahydro-3H-[1]benzoxepino[4,5-b][1,4]thiazin-10-yl)-5-(((1R)-1-methyl-2-butyn-1-yl)oxy)-2-pyrazinecarboxamide,N-((4aR,11bR)-2-amino-3,3,11b-trimethyl-4,4-dioxido-4a,5,6,11b-tetrahydro-3H-[1]benzoxepino[4,5-b][1,4]thiazin-10-yl)-5-(((1S)-1-methyl-2-butyn-1-yl)oxy)-2-pyrazinecarboxamide]
8 | – | – | – | 1060 µM | 0.067 µM | 0.056 µM | – | CC(C#N)Oc1ccc(C(=O)Nc2ccc3c(c2)[C@@]2(C)N=C(N)C(C)(C)S(=O)(=O)[C@@H]2CCO3)nc1 (mixture of isomers) [Example 125, N-((4aR,11bR)-2-amino-3,3,11b-trimethyl-4,4-dioxido-4a,5,6,11b-tetrahydro-3H-[1]benzoxepino[4,5-b][1,4]thiazin-10-yl)-5-((1R)-1-cyanoethoxy)-2-pyridinecarboxamide, N-((4aR,11bR)-2-amino-3,3,11b-trimethyl-4,4-dioxido-4a,5,6,11b-tetrahydro-3H-[1]benzoxepino[4,5-b][1,4]thiazin-10-yl)-5-((15)-1-cyanoethoxy)-2-pyridinecarboxamide]
9 | > 100 µM | 0.01 µM | 0.004 µM | – | – | – | – | Cc1cc(Cl)cnc1C(=O)Nc1ccc2c(c1)[C@]1(C)N=C(N)C(C)(C)S(=O)(=O)[C@H]1CCO2 (racemic) [Example 4, N-((4aRS,11bRS)-2-amino-3,3,11b-trimethyl-4,4-dioxido-4a,5,6,11b-tetrahydro-3H-benzo[6,7]oxepino[4,5-b][1,4]thiazin-10-yl)-5-chloro-3-methylpicolinamide]
10 | 1990 µM | 0.001 µM | 0.002 µM | – | – | – | > 1200 µM | CC#C[C@@H](C)Oc1ccc(C(=O)Nc2ccc3c(c2)[C@@]2(C)N=C(N)C(C)(C)S(=O)(=O)[C@@H]2CCO3)nc1 (single isomer, unassigned) [Example 68]
11 | 811 µM | 1.01 µM | 0.081 µM | – | – | – | – | CC#C[C@H](C)Oc1ccc(C(=O)Nc2ccc3c(c2)[C@@]2(C)N=C(N)C(C)(C)S(=O)(=O)[C@@H]2CCO3)nc1 (single isomer, unassigned) [Example 69]
12 | 237 µM | 0.026 µM | 0.003 µM | – | – | – | – | CC#C[C@H](C)Oc1cnc2c(Nc3ccc4c(c3)[C@@]3(C)N=C(N)C(C)(C)S(=O)(=O)[C@@H]3CCO4)ncc(F)c2c1 (single isomer, unassigned) [Example 70]
13 | 186 µM | 2.36 µM | 0.12 µM | – | – | – | – | CC#C[C@@H](C)Oc1cnc2c(Nc3ccc4c(c3)[C@@]3(C)N=C(N)C(C)(C)S(=O)(=O)[C@@H]3CCO4)ncc(F)c2c1 (single isomer, unassigned) [Example 71]
14 | > 100 µM | 0.006 µM | 0.002 µM | – | – | – | – | Cc1cc(Cl)cnc1C(=O)Nc1ccc2c(c1)[C@@]1(C)N=C(N)C(C)(C)S(=O)(=O)[C@@H]1CCO2 [Example 6a, N-((4aR,11bR)-2-amino-3,3,11b-trimethyl-4,4-dioxido-4a,5,6,11b-tetrahydro-3H-benzo[6,7]oxepino[4,5-b][1,4]thiazin-10-yl)-5-chloro-3-methylpicolinamide]
15 | > 100 µM | 0.004 µM | 0.003 µM | – | – | – | – | Cc1cc(Cl)cnc1C(=O)Nc1ccc2c(c1)[C@@]1(C)N=C(N)C(C)(C)S(=O)(=O)[C@H]1CCO2 [Example 6b, N-((4aS,11bR)-2-amino-3,3,11b-trimethyl-4,4-dioxido-4a,5,6,11b-tetrahydro-3H-benzo[6,7]oxepino[4,5-b][1,4]thiazin-10-yl)-5-chloro-3-methylpicolinamide]

From patent US9309263B2, “Fused multi-cyclic sulfone compounds as inhibitors of beta-secretase and methods of use thereof” (AMGEN INC., priority 2013, dated 2016)
